Here are results for one molecule from paper PMC11156899, “High-throughput screening unveils nitazoxanide as a potent PRRSV inhibitor by targeting NMRAL1” (Nature Communications, 2024).

One series has as its system NSP12. Put plainly: In vitro binding (DSF/CETSA) of NSP12 purified by inclusion bodies. Further details: species or system PRRSV GSWW-18 strain. The note with it: NSP12 purified by IBs, different buffer systems. The method, then:
(§1) For DSF, 20 μM purified NSP1α and NSP12 protein from the GSWW-18 strain, as well as NMRAL1 protein (Accession: A0A0D9R9W0) was thoroughly mixed with 20 μM SYPRO Orange (S6650, Thermo) in a buffer containing 10 mM HEPES and 200 mM NaCl at pH 7.20. An equal volume of 100 μM NTZ, dissolved in the same buffer, was added and the mixture was filtered through a 0.22 μm filter. For controls, an equivalent volume of DMSO was used. […] DSF experiments were monitored using the QuantStudio™ 5 Real-Time PCR System (Thermo). Data were analyzed using DSFworld[42].
'FT' is the flow-through after passing through the Ni column. 'Ni-200' and 'Ni-500' represent different purification conditions with varying concentrations. 'L2' is the total cell lysate after changing the expression conditions. 'S2' is the supernatant after cell lysis with changed expression conditions. The portions highlighted in red boxes indicate the target protein. […]
constant (KD) between Nsp1α and TIZ is lower than that of NMRAL1. We observe that […]
attempting different systems (Fig. R5 e-h). Although SPR confirms the interaction […]
possibly be attributed to the abnormal protein conformation of NSP12 purified by IBs. […]
(b) The KD value of Nsp1α determined using the Kinetics fit model. […]
(I) The KD value of Nsp12 determined using the Kinetics fit model. […]

A further series concerns PRRSV (GSWW-18 strain). Kind of series: Anti-PRRSV dose-response (EC50, IFA) in PAM cells. In kind it is cell-based, Porcine Reproductive and Respiratory Syndrome Virus. As to conditions: PAM cells.
A further series concerns Nsp1α. Put plainly: Differential scanning fluorimetry, purified Nsp1α. In kind it is binding, PRRSV GSWW-18 strain. The note with it: DSF. The method, then:
as §1
Supplementary Fig. 10: The Affinity of Nsp1α and Nsp12 with TIZ is Lower Than That of NMRAL1.
(a) The KD value of NMRAL1 obtained through the Affinity fit model.
(b) The KD value of Nsp1α determined using the Kinetics fit model.
(c) The KD value of Nsp1α obtained through the Affinity fit model.
Background: DSF heats the sample and reads unfolding from a dye or from intrinsic fluorescence.

Another series deals with PRRSV VR-2332. Kind of series: Time-of-addition and lifecycle-stage experiments in Marc-145 cells. In kind it is cell-based, Porcine Reproductive and Respiratory Syndrome Virus. From the text: The pronounced antiviral phenotype led us to explore the mechanism behind NTZ’s inhibition of PRRSV proliferation. We adopted a classic approach of administering the drug at various time points to study NTZ’s effect on the PRRSV lifecycle (Supplementary Fig. 9a). […] Identifying the target protein of NTZ became imperative. Using the isothermal shift assay (iTSA), we discovered 26 potential NTZ targets (Fig. 5a). Further, Cellular Thermal Shift Assay-Western Blot (CETSA-WB) temperature range (TR) experiment indicated Glycine amidinotransferase mitochondrial (GATM), NMRAL1, and PRRSV proteins NSP1α and NSP12 as potential NTZ targets (Fig. 5b, c). The compound concentration range (CCR) experiment also supported these four proteins as potential NTZ targets (Fig. 5d).
Supplementary Fig. 9: NTZ Inhibition of PRRSV Replication Stages.
(a) Schematic of the classic experimental approach of adding the drug at different time points. […]
(c) Viral inactivation (dark purple): PRRSV was pre-incubated with the compound for 1 hour in the incubator before transferring to monolayer Marc-145 cells, followed by medium change after 2 hours. […] All samples were collected and analyzed at 48 […]
hours. […] NS indicates P > 0.0332, calculated via two-way ANOVA with Dunnett’s multiple-comparison test (b and c); P-values < 0.0332 were considered significant.

A further series relates to PRRSV GSWW-15. Kind of series: EC50 against GSWW-15 strain on PAM cells. The note with it: Porcine reproductive and respiratory syndrome virus. The format is cell-based. An excerpt: Supplementary Fig. 3: Cytotoxicity and Antiviral Efficacy of NTZ.
PRRSV capsid protein positive
(primary antibody SR30, green) and nuclei (DAPI, blue).

The nature of the next series: in vitro. As to conditions: pig. The protocol: (§2) A concentration-gradient screening strategy was employed for 141 compounds using indirect immunofluorescence assay (IFA). […] Data are mean ± SEM.
(§3) Cells were seeded in 96-well plates and grown in DMEM supplemented with 10% FBS. Upon reaching confluence, compounds were diluted to varying concentrations in 2% FBS-containing medium. Control wells contained DMEM with 0.5% DMSO. Treated cells were incubated at 37 °C in a 5% CO2 humidified environment for 48 or 72 h, followed by cytotoxicity assessment as outlined in our previous work[21]. […]

The test system of series [1] is Porcine alveolar macrophages (PAM). Kind of series: in vitro. The protocol: as §2, §3

As a reminder, the EC50 is the midpoint of the concentration-response curve. In the case of `CC(=O)Oc1ccccc1C(=O)Nc1ncc([N+](=O)[O-])s1` [Nitazoxanide], in the series on NSP12, the “binding activity with NSP12 in vitro” value is on record as “did not exhibit binding activity”. The “IFA inhibitory effect on PRRSV” value in the series with PRRSV (GSWW-18 strain) (GSWW-18) is given as “dose-dependent inhibitory effect”. In addition, the EC50 in the series on PRRSV (GSWW-18 strain) (Porcine reproductive and respiratory syndrome virus, mean ± SEM, n = 2, unit only on axis title, read-out: EC50) is 310 ± 147 nM; in the series on PRRSV GSWW-15 it was around 1170 nM. The “decrease in the Tm value” with Nsp1α turned out to be 3.75 °C. For the same molecule, in the series on PRRSV VR-2332 (added 16 h post viral inoculation), the “PRRSV proliferation, late addition” value is recorded as “significantly inhibited PRRSV proliferation”. Moreover, the “stage of PRRSV lifecycle affected” value in the series on PRRSV VR-2332 (adsorption, entry, replication, release) is reported as “primarily affects PRRSV replication”. Also, the CC50 at 48 h in the series “in vitro” was around 44 µM. In addition, in series [1], the “cytotoxicity (in words)” value is reported as “low cytotoxicity”.
